8 compounds from patent US12054497B2, “Substituted heterocyclic fused cyclic compound, preparation method therefor and pharmaceutical use thereof” (GENFLEET THERAPEUTICS (SHANGHAI) INC., priority 2019, dated 2024) can be followed below.

The test system of assay [1] is MIA PaCa-2 cells with Kras G12C mutation. Briefly: Cell proliferation inhibition experiment, 3D spheroid, CellTiter-Glo (Test Example 3). The conditions noted are these: 5 days, read-out: MIA-PaCa2 IC50. It counts as cell-based, human. An outline of the steps: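 MIA PaCa-2 spheroids (200 cells/well) were formed overnight, then exposed for 5 days to compounds in 3.16-fold dilutions at 0.1% DMSO. Viability was read by CellTiter-Glo luminescence, and inhibition was normalised to DMSO control and medium blank. IC50 came from a four-parameter fit.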
(In general: ATP-based viability assays read luminescence as a measure of living cells.)

Assay [2] relates to subcutaneous xenograft tumor model of MIA PaCa-2. Briefly: In vivo pharmacodynamic experiment, tumor growth inhibition (Test Example 5). The arrangement: species or system BALB/c nude mice. The conditions noted are these: p.o., QD; for TGI: day 14. The method, then: Experimental objective: to evaluate the in vivo pharmaceutical effects of tested compounds on the subcutaneous xenograft tumor model of MIA PaCa-2.
Experimental operation: 6 to 8 weeks old female BALB/c nude mice each having the body weight of 18-20 g were chosen. MIA PaCa-2 cells were cultured in DMEM containing 10% FBS, 2.5% HS and 1% penicillin-streptomycin at 37° C. in an incubator with 5% CO2. Cells were collected. The MIA PaCa-2 cells were subcutaneously inoculated to the animals at their backs on the right, 2.0×10^6 cells (0.1 mL) for each animal. When tumor grew to 190-311 mm^3, mice with tumor having a suitable size were chosen and treated in groups, with administration dosages shown in Table 5 below. The animals were weighed on an electronic balance each day. The tumor volume was investigated by using a vernier caliper twice a week. The tumor volume was calculated by the following equation: V=0.5 a×b^2, a and b representing the long diameter and the short diameter of the tumor, respectively. The tumor volume was used to calculate a tumor growth inhibition rate (TGI), and the TGI shown in the form of a percentage was used to indicate the antineoplastic activity of a compound. The TGI was calculated by the following equation: TGI (%)=[1−avTi−0/avCi−0)]×100, with avTi−0 representing the average tumor volume of the group administrated with the compound on a specific day minus the average tumor volume of this group on the day of grouping, and avCi−0 representing the average tumor volume of the solvent control group on a specific day minus the average tumor volume of the solvent control group on the day of grouping. The tumor volume was shown in the form of an average value±standard error of mean (SEM).

In assay [3] the target is KRas G12C (Homo sapiens (Human), UniProt P01116, G12C). Put plainly: Nucleotide exchange assay (NEA)-HTRF, SOS1 catalyzed displacement of GDP by GTP (Test Example 4). Format: biochemical. The method in brief: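 His-tagged KRas G12C preloaded with DY647-GDP (40 nM working solution, with anti-His Tb) was preincubated 15 min with compound at 20 °C. SOS1/GTP (0.2 μM/200 μM working solution) was then added for 2 h in the dark. The HTRF 665/615 nm ratio gave inhibition relative to no-compound control and SOS1/GTP-free T0, with a four-parameter IC50 fit.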
Chain of KRas G12C (P01116-2 other isoform, or with tags, fused parts or gaps G12C): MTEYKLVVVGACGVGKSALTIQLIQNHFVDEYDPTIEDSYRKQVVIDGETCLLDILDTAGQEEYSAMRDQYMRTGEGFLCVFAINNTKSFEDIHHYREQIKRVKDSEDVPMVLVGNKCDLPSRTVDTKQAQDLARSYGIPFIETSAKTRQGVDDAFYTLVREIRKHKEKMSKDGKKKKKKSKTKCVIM

Where [4] appears, read: Homo sapiens, MIA PaCa-2, 120 h.

Read-outs that look alike come from different tables or passages of the source.

On to `C=CC(=O)N1CCN2c3c(c(=O)n(-c4c(C(C)C)ncnc4C(C)C)c4nc(-c5c(O)cccc5F)c(Cl)cc34)N(C)C(=O)[C@H]2C1` [Compound Z48], for which the IC50 in assay [1] (setting [4]) was 6 nM. For the same compound, the “Tumor Volume on Day 14 after Administration” value (shortened to “Tumor Volume”) in assay [2] (1 mg/kg) is reported as 459.33 mm^3; in assay [2] (3 mg/kg), 148.62 mm^3; in assay [2] (10 mg/kg), 90.39 mm^3. The TGI in assay [2] (1 mg/kg) is 51.2%; in assay [2] (3 mg/kg), 124.7%; in assay [2] (10 mg/kg), 138.5%.
On to `C=CC(=O)N1CCN2c3c(c(=O)n(-c4c(C)ccnc4C(C)C)c4nc(-c5c(O)cccc5F)c(F)cc34)N(C)C(=O)[C@H]2C1` (single isomer, unassigned) [Compound Z9-2], for which the IC50 in assay [3] is 115 nM; in assay [1] (setting [4]), 17 nM.
As to `C=CC(=O)N1CCN2c3c(c(=O)n(-c4c(C)ccnc4C(C)C)c4nc(-c5c(O)cccc5F)c(Cl)cc34)N(C)C(=O)[C@H]2C1` (single isomer, unassigned) [Compound Z25-2], the IC50 in assay [3] amounted to 25 nM; in assay [1] (Homo sapiens, 120 h), 5 nM. Also, the entries for the “Tumor Volume” value in assay [2] (1 mg/kg), in assay [2] (3 mg/kg) and in assay [2] (10 mg/kg) were 180.14 mm^3, 62.35 mm^3 and 18.94 mm^3, respectively. Moreover, the TGI in assay [2] (1 mg/kg) worked out at 116.2%; in assay [2] (3 mg/kg), 143.7%; in assay [2] (10 mg/kg), 154.4%.
With `C=CC(=O)N1C[C@@H]2C(=O)N(C)c3c(c4cc(Cl)c(-c5c(O)cccc5F)nc4n(-c4c(C)ccnc4C(C)C)c3=O)N2C[C@H]1C` (single isomer, unassigned) [Compound Z27-2], the results for the 50% inhibitory concentration (IC50) in assay [3] and in assay [1] (setting [4]) were 9 nM and 1 nM, respectively. Moreover, the “Tumor Volume” value in assay [2] (1 mg/kg) was determined as 140.10 mm^3; in assay [2] (3 mg/kg), 54.81 mm^3; in assay [2] (10 mg/kg) it was 15.16 mm^3. Moreover, the TGI turned out to be 126.3% in assay [2] (1 mg/kg), 145.1% in assay [2] (3 mg/kg) and 155.8% in assay [2] (10 mg/kg).
Turning to `C=CC(=O)N1CCN2c3c(c(=O)n(-c4c(C)ccnc4C(C)C)c4nc(-c5c(O)cccc5F)c(F)cc34)OC[C@H]2C1` [Compound Z1, (4aR)-3-acryloyl-11-fluoro-10-(2-fluoro-6-hydroxyphenyl)-8-(2-isopropyl-4-methylpyridin-3-yl)-1,2,3,4,4a,5-hexahydropyrazino[1′,2′:4,5][1,4]oxazino[2,3-c][1,8]naphthyridin-7(8H)-one], the values for the IC50 in assay [3] and in assay [1] (setting [4]) were 255 nM and 90 nM, respectively.
For the compound `[2H]C([2H])([2H])N1C(=O)[C@H]2CN(C(=O)C=C)CCN2c2c1c(=O)n(-c1c(C)ccnc1C(C)C)c1nc(-c3c(O)cccc3F)c(Cl)cc21` (single isomer, unassigned) [Compound Z26-2], the IC50 amounted to 40 nM in assay [3] and 5 nM in assay [1]. Also, the “Tumor Volume” value in assay [2] (1 mg/kg) is 157.06 mm^3; in assay [2] (3 mg/kg), 67.66 mm^3; in assay [2] (10 mg/kg), 30.49 mm^3. Besides, the TGI in assay [2] (1 mg/kg) is on record as 121.1%; in assay [2] (3 mg/kg) it was 143.8%; in assay [2] (10 mg/kg) it was 151.1%.
With `C=CC(=O)N1CCN2c3c(c(=O)n(-c4c(C(C)C)ncnc4C(C)C)c4c(F)c(-c5c(O)cccc5F)c(Cl)cc34)NC(=O)[C@H]2C1` (single isomer, unassigned) [Compound Z37-1], the results for the IC50 in assay [3] and in assay [1] (setting [4]) were 11 nM and 2 nM, respectively. In addition, the “Tumor Volume” value in assay [2] (1 mg/kg) stood at 286.12 mm^3; in assay [2] (3 mg/kg) it was 238.82 mm^3; in assay [2] (10 mg/kg), 210.59 mm^3. Also, the TGI in assay [2] (1 mg/kg) is given as 89.4%; in assay [2] (3 mg/kg), 102.8%; in assay [2] (10 mg/kg) it was 108.4%.
In the case of `C=CC(=O)N1C[C@@H]2C(=O)N(C)c3c(c4cc(F)c(-c5c(O)cccc5F)nc4n(-c4c(C)ccnc4C(C)C)c3=O)N2C[C@H]1C` (single isomer, unassigned) [Compound Z10-2], the IC50 in assay [3] came out at 37 nM; in assay [1] (setting [4]) it was 8 nM.

Broadly, the IC50 is the concentration needed to halve the response being measured.
